According to patent publication US20240074442A1, “UVARIA GRANDIFLORA EXTRACT AS A BOTANICAL FUNGICIDE, PREPARATION METHOD THEREFOR, AND APPLICATION THEREOF” (HAINAN UNIVERSITY, priority 2021, published 2024):
Values after ≈ are worked out from the molar mass of the structure shown. Structures can show the parent of a compound that is named as a salt. Where two headings read alike, the source gives them in different places.

Experiments:
cowpea powdery mildew = assay: Potted fungicidal activity test; conditions: in vivo
Rhizoctonia solani = assay: Mycelial growth rate method, in vitro fungicidal activity; type: cell-based; conditions: R.S
Pyricularia oryzae = assay: microbe, parasite or virus in culture; type: cell-based; conditions: for inhibition at 50 µg/mL: read-out: Inhibition rate (%)
Fusarium graminearum = assay: microbe, parasite or virus in culture; type: cell-based; conditions: for inhibition at 50 µg/mL: read-out: Inhibition rate (%)
Colletotrichum siamense = assay: Mycelial growth rate method, in vitro fungicidal activity; type: cell-based; conditions: C.S, 50 μg mL^−1; for inhibition at 50 µg/mL: Colletotrichum siamense
Colletotrichum musae = assay: as above; type: cell-based; conditions: C.M
[1] = tested on: Colletotrichum gloeosporioiles; assay: as above; type: cell-based; conditions: C.G, 50 μg mL^−1; for inhibition at 50 µg/mL: Colletotrichum
Colletotrichum capsici = assay: as above; type: cell-based; conditions: C.C, 50 μg mL^−1; for inhibition at 50 µg/mL: Colletotrichum truncatum
Phytophthora capsici [2] = assay: as above; type: cell-based; conditions: P.C
Gilbertella persicaria = assay: as above; type: cell-based; conditions: G.P
[3] = tested on: Neoscytalidium dimidiatum; assay: as above; type: cell-based; conditions: N.D, 50 μg mL^−1; for inhibition at 50 µg/mL: Neoscytalidium dimidiatum
Cucumber downy mildew = assay: Potted fungicidal activity test; type: in vivo, Pseudoperonospora cubensis; conditions: for Control effect (%): potted, cucumber downy mildew
potato late blight = type: in vivo; conditions: potted
Phytophthora capsici [4] = assay: Potted fungicidal activity test, protective effect; conditions: in vivo
[5] = Rhizoctonia solani, 50 μg mL^−1
[6] = Rhizoctonia solani, read-out: EC50
[7] = Colletotrichum musae, 50 μg mL^−1
[8] = Colletotrichum musae, read-out: EC50
[9] = Phytophthora capsici, 50 μg mL^−1
[10] = Phytophthora capsici, read-out: EC50
[11] = Gilbertella persicaria, 50 μg mL^−1
[12] = Gilbertella persicaria, read-out: EC50

| Structure (SMILES) | inhibition at 50 µg/mL (Rhizoctonia solani; [5]) | EC50 (Rhizoctonia solani; [6]) | EC50 (Pyricularia oryzae; Pyricularia oryzae) | inhibition at 50 µg/mL (Pyricularia oryzae; Pyricularia oryzae) | EC50 (Fusarium graminearum; Fusarium graminearum) | inhibition at 50 µg/mL (Fusarium graminearum; Fusarium graminearum) | inhibition at 50 µg/mL (Colletotrichum siamense) | inhibition at 50 µg/mL (Colletotrichum musae; [7]) | EC50 (Colletotrichum musae; [8]) | inhibition at 50 µg/mL [1] | inhibition at 50 µg/mL (Colletotrichum capsici) | inhibition at 50 µg/mL (Phytophthora capsici [2]; [9]) | EC50 (Phytophthora capsici [2]; [10]) | inhibition at 50 µg/mL (Gilbertella persicaria; [11]) | EC50 (Gilbertella persicaria; [12]) | inhibition at 50 µg/mL [3] | Control effect (%) (Phytophthora capsici [4]) | Disease index (±SD) (Phytophthora capsici [4]) | also measured |
| --- | --- | --- | --- | --- | --- | --- | --- | --- | --- | --- | --- | --- | --- | --- | --- | --- | --- | --- | --- |
| CCCC1COC(Cn2cncn2)(c2ccc(Cl)cc2Cl)O1 (stereo not drawn) [Propiconazole] |  |  |  |  |  |  |  |  |  |  |  |  |  |  |  |  |  |  | Control effect (%) (cowpea powdery mildew): 100%; Disease index (±SD) (cowpea powdery mildew): 0 ± 0.0 |
| CO/C=C(/C(=O)OC)c1ccccc1Oc1cc(Oc2ccccc2C#N)ncn1 [Azoxystrobin] |  |  |  |  |  |  |  |  |  |  |  |  |  |  |  |  |  |  | EC50 (Rhizoctonia solani): <0.06 ± 0.12 µg/mL; Inhibition rate (%) (Rhizoctonia solani; 50 μg mL^−1): 73.1%; EC50 (Pyricularia oryzae; P.O): 17.89 ± 0.14 µg/mL (≈ 44.3 µM); Inhibition rate (%) (Pyricularia oryzae; P.O, 50 μg mL^−1): 57.8%; EC50 (Fusarium graminearum; F.G): 5.27 ± 0.21 µg/mL (≈ 13.1 µM); Inhibition rate (%) (Fusarium graminearum; F.G, 50 μg mL^−1): 65.7%; Inhibition rate (%) (Colletotrichum siamense): 60.9%; EC50 (Colletotrichum musae): 52.51 ± 0.42 µg/mL (≈ 130 µM); Inhibition rate (%) (Colletotrichum musae; 50 μg mL^−1): 51.2%; Inhibition rate (%) [1]: 52.5%; Inhibition rate (%) (Colletotrichum capsici): 41.27%; EC50 (Phytophthora capsici [2]): 18.81 ± 0.31 µg/mL (≈ 46.6 µM); Inhibition rate (%) (Phytophthora capsici [2]; 50 μg mL^−1): 69.9%; EC50 (Gilbertella persicaria): 39.09 ± 0.05 µg/mL (≈ 96.9 µM); Inhibition rate (%) (Gilbertella persicaria; 50 μg mL^−1): 57.2%; Inhibition rate (%) [3]: 51.2% |
| O=C(OC[C@]1(O)C(=O)C=C[C@H](OC(=O)c2ccccc2)[C@H]1O)c1ccccc1 [zeylenone] | 76.8% | 4.91 ± 0.12 µg/mL (≈ 12.8 µM) | 21.38 ± 0.14 µg/mL (≈ 55.9 µM) | 66.2% | 22.94 ± 0.11 µg/mL (≈ 60 µM) | 52.5% | 43.5% | 84.3% | 3.37 µg/mL (≈ 8.81 µM) | 45% | 34.4% | 88.1% | 6.98 µg/mL (≈ 18.3 µM) | 77.6% | 17.3 ± 2.29 µg/mL (≈ 45.2 µM) | 43.8% |  |  | control effect on cucumber downy mildew compared with Cyazofamid (Cucumber downy mildew; potted fungicidal activity test, in words): equivalent to that of the chemical fungicide Cyazofamid; Control effect (%) (Cucumber downy mildew; 6.25 μg mL^−1): 25 ± 1.0%; Control effect (%) (Cucumber downy mildew; 12.5 μg mL^−1): 70 ± 3.0%; Control effect (%) (Cucumber downy mildew; 25 μg mL^−1): 88 ± 1.7%; Control effect (%) (Cucumber downy mildew; 50 μg mL^−1): 99 ± 2.0%; Control effect (%) (potato late blight; 6.25 μg mL^−1): 0 ± 0.0%; Control effect (%) (potato late blight; 12.5 μg mL^−1): 0 ± 0.0%; Control effect (%) (potato late blight; 25 μg mL^−1): 0 ± 0.0%; Control effect (%) (potato late blight; 50 μg mL^−1): 20 ± 2.0% |
| COc1ccc2cc3[n+](cc2c1OC)CCc1cc2c(cc1-3)OCO2 [Berberine hydrochloride] |  |  |  |  |  |  |  |  |  |  |  |  |  |  |  |  | 80.0% | 16.0 ± 2.0 |  |
| COc1ccc2ccc(=O)oc2c1CC=C(C)C [Osthole] | 75.8% | 16 ± 1.39 µg/mL (≈ 65.6 µM) | 11.5 ± 0.42 µg/mL (≈ 47.2 µM) | 89.1% | 21.4 ± 0.61 µg/mL (≈ 87.7 µM) | 65.1% | 37.7% | 93.3% | 9.18 ± 0.33 µg/mL (≈ 37.6 µM) | 56.9% | 4.8% | 55.7% | 52.59 ± 0.27 µg/mL (≈ 215 µM) | 94.3% | 11.4 ± 0.51 µg/mL (≈ 46.7 µM) | 68.2% |  |  |  |
| COc1ccc(C(=CC(=O)N2CCOCC2)c2ccc(Cl)cc2)cc1OC [Dimethomorph] |  |  |  |  |  |  |  |  |  |  |  |  |  |  |  |  | 100.0% | 0.0 ± 0.0 |  |
